This is an account of results in ChEMBL document CHEMBL1125877, “Synthesis of high specific activity (+)- and (-)-6-[18F]fluoronorepinephrine via the nucleophilic aromatic substitution reaction” (1991).

For assay [1], the species on record is Papio hamadryas. Briefly: Peak concentration injected dose/cc was observed at 10 min post injection in female baboons. It counts as functional.
For assay [2], the species on record is Papio hamadryas. Briefly: Percent radioactivity remained at 120 min post injection was reported in female baboons. The format is functional, organism-based. Conditions: tested as the 18F-labelled form.

In the assay listed under Papio hamadryas [1], `NCC(O)c1cc(O)c(O)cc1[18F]` (racemic) gave a Peak concentration of 0.042%.
As to `NCC(O)c1cc(O)c(O)cc1F` (racemic), in the assay listed under Papio hamadryas [2], the Radioactivity remained was 0.032%.
